Reference: patent publication US12077503B2, “Substituted cyclic amides and their use as herbicides” (FMC CORPORATION, priority 2015, dated 2024)

Legend:
Format in all cases: in vivo
[1] = system: barnyardgrass (Echinochloa crus-galli); test: Test G Pre-Emergence Protocol; conditions: Echinochloa crus-galli, pre-emergence, 312 h, evaluated after 13 days; for pest or weed control at 15.625 g/ha: 15.625 g ai/ha; for pest or weed control at 15.625 g/ha / pest or weed control at 250 g/ha: read-out: Barnyardgrass damage rating (100=total damage to plant; 0=no damage to plant); for pest or weed control at 62.5 g/ha: 62.5 g ai/ha, 100=total damage to plant, 0=no damage to plant, read-out: Barnyardgrass damage rating; for pest or weed control at 250 g/ha: 250 g ai/ha
Procedure, shortened: (§1)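 One day after sowing, pots are treated with a spray of test compound formulated in acetone/water 50:50 plus 0.5% Tween 20, giving 15.625, 62.5 or 250 g/ha. Evaluation on a 0–100 damage scale follows 13 days of glasshouse growth.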

corn (Zea mays) [2] = test: Test G Pre-Emergence Protocol; conditions: Zea mays, pre-emergence, 312 h, evaluated after 13 days; for plant injury at 15.625 g/ha: 15.625 g ai/ha; for plant injury at 15.625 g/ha / plant injury at 250 g/ha: read-out: Corn damage rating (100=total damage to plant; 0=no damage to plant); for plant injury at 62.5 g/ha: 62.5 g ai/ha, 100=total damage to plant, 0=no damage to plant, read-out: Corn damage rating; for plant injury at 250 g/ha: 250 g ai/ha
Procedure, shortened: as §1

[3] = system: giant foxtail (Setaria faberi); test: Test G Pre-Emergence Protocol; conditions: Setaria faberi, pre-emergence, 312 h, evaluated after 13 days; for pest or weed control at 15.625 g/ha: 15.625 g ai/ha; for pest or weed control at 15.625 g/ha / pest or weed control at 250 g/ha: read-out: Foxtail, Giant damage rating (100=total damage to plant; 0=no damage to plant); for pest or weed control at 62.5 g/ha: 62.5 g ai/ha, 100=total damage to plant, 0=no damage to plant, read-out: Foxtail, Giant damage rating; for pest or weed control at 250 g/ha: 250 g ai/ha
Procedure, shortened: as §1

[4] = system: ivy-leaved morning glory (Ipomoea hederacea); test: Test G Pre-Emergence Protocol; conditions: Ipomoea, pre-emergence, 312 h, evaluated after 13 days; for pest or weed control at 15.625 g/ha: 15.625 g ai/ha; for pest or weed control at 15.625 g/ha / pest or weed control at 250 g/ha: read-out: Morningglory, Ivy-leaved damage rating (100=total damage to plant; 0=no damage to plant); for pest or weed control at 62.5 g/ha: 62.5 g ai/ha, 100=total damage to plant, 0=no damage to plant, read-out: Morningglory, Ivy-leaved damage rating; for pest or weed control at 250 g/ha: 250 g ai/ha
Procedure, shortened: as §1

[5] = system: redroot pigweed (Amaranthus retroflexus); test: Test G Pre-Emergence Protocol; conditions: Amaranthus retroflexus, pre-emergence, 312 h, evaluated after 13 days; for pest or weed control at 15.625 g/ha: 15.625 g ai/ha; for pest or weed control at 15.625 g/ha / pest or weed control at 250 g/ha: read-out: Pigweed, Redroot damage rating (100=total damage to plant; 0=no damage to plant); for pest or weed control at 62.5 g/ha: 62.5 g ai/ha, 100=total damage to plant, 0=no damage to plant, read-out: Pigweed, Redroot damage rating; for pest or weed control at 250 g/ha: 250 g ai/ha
Procedure, shortened: as §1

[6] = system: velvetleaf (Abutilon theophrasti); test: Test G Pre-Emergence Protocol; conditions: Abutilon theophrasti, pre-emergence, 312 h, evaluated after 13 days; for pest or weed control at 15.625 g/ha: 15.625 g ai/ha; for pest or weed control at 15.625 g/ha / pest or weed control at 250 g/ha: read-out: Velvetleaf damage rating (100=total damage to plant; 0=no damage to plant); for pest or weed control at 62.5 g/ha: 62.5 g ai/ha, 100=total damage to plant, 0=no damage to plant, read-out: Velvetleaf damage rating; for pest or weed control at 250 g/ha: 250 g ai/ha
Procedure, shortened: as §1

[7] = system: barnyardgrass (Echinochloa crus-galli); test: Test G Post-Emergence Protocol; conditions: Echinochloa crus-galli, post-emergence, 312 h, read-out: Barnyardgrass damage rating; for pest or weed control at 15.625 g/ha: 15.625 g ai/ha, evaluated after 13 days (100=total damage to plant; 0=no damage to plant); for pest or weed control at 62.5 g/ha: 62.5 g ai/ha; for pest or weed control at 62.5 g/ha / pest or weed control at 250 g/ha: evaluated after 13 days, 100=total damage to plant, 0=no damage to plant; for pest or weed control at 250 g/ha: 250 g ai/ha
Procedure, shortened: (§2)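 Values are percent visual injury at 13 days after treatment (0 none, 100 total). Treatment was a post-emergence spray at 15.625, 62.5 or 250 g/ha on 8-day-old pot plants kept at 24/16 °C.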

corn (Zea mays) [8] = test: Test G Post-Emergence Protocol; conditions: Zea mays, post-emergence, 312 h, read-out: Corn damage rating; for plant injury at 15.625 g/ha: 15.625 g ai/ha, evaluated after 13 days (100=total damage to plant; 0=no damage to plant); for plant injury at 62.5 g/ha: 62.5 g ai/ha; for plant injury at 62.5 g/ha / plant injury at 250 g/ha: evaluated after 13 days, 100=total damage to plant, 0=no damage to plant; for plant injury at 250 g/ha: 250 g ai/ha
Procedure, shortened: as §2

[9] = system: giant foxtail (Setaria faberi); test: Test G Post-Emergence Protocol; conditions: Setaria faberi, post-emergence, 312 h, read-out: Foxtail, Giant damage rating; for pest or weed control at 15.625 g/ha: 15.625 g ai/ha, evaluated after 13 days (100=total damage to plant; 0=no damage to plant); for pest or weed control at 62.5 g/ha: 62.5 g ai/ha; for pest or weed control at 62.5 g/ha / pest or weed control at 250 g/ha: evaluated after 13 days, 100=total damage to plant, 0=no damage to plant; for pest or weed control at 250 g/ha: 250 g ai/ha
Procedure, shortened: as §2

[10] = system: ivy-leaved morning glory (Ipomoea hederacea); test: Test G Post-Emergence Protocol; conditions: Ipomoea, post-emergence, 312 h, read-out: Morningglory, Ivy-leaved damage rating; for pest or weed control at 15.625 g/ha: 15.625 g ai/ha, evaluated after 13 days (100=total damage to plant; 0=no damage to plant); for pest or weed control at 62.5 g/ha: 62.5 g ai/ha; for pest or weed control at 62.5 g/ha / pest or weed control at 250 g/ha: evaluated after 13 days, 100=total damage to plant, 0=no damage to plant; for pest or weed control at 250 g/ha: 250 g ai/ha
Procedure, shortened: as §2

[11] = system: redroot pigweed (Amaranthus retroflexus); test: Test G Post-Emergence Protocol; conditions: Amaranthus retroflexus, post-emergence, 312 h, read-out: Pigweed, Redroot damage rating; for pest or weed control at 15.625 g/ha: 15.625 g ai/ha, evaluated after 13 days (100=total damage to plant; 0=no damage to plant); for pest or weed control at 62.5 g/ha: 62.5 g ai/ha; for pest or weed control at 62.5 g/ha / pest or weed control at 250 g/ha: evaluated after 13 days, 100=total damage to plant, 0=no damage to plant; for pest or weed control at 250 g/ha: 250 g ai/ha
Procedure, shortened: as §2

[12] = system: velvetleaf (Abutilon theophrasti); test: Test G Post-Emergence Protocol; conditions: Abutilon theophrasti, post-emergence, 312 h, read-out: Velvetleaf damage rating; for pest or weed control at 15.625 g/ha: 15.625 g ai/ha, evaluated after 13 days (100=total damage to plant; 0=no damage to plant); for pest or weed control at 62.5 g/ha: 62.5 g ai/ha; for pest or weed control at 62.5 g/ha / pest or weed control at 250 g/ha: evaluated after 13 days, 100=total damage to plant, 0=no damage to plant; for pest or weed control at 250 g/ha: 250 g ai/ha
Procedure, shortened: as §2

Compound | pest or weed control at 15.625 g/ha [1] [%] | pest or weed control at 62.5 g/ha [1] [%] | pest or weed control at 250 g/ha [1] [%] | plant injury at 15.625 g/ha (corn (Zea mays) [2]) [%] | plant injury at 62.5 g/ha (corn (Zea mays) [2]) [%] | plant injury at 250 g/ha (corn (Zea mays) [2]) [%] | pest or weed control at 15.625 g/ha [3] [%] | pest or weed control at 62.5 g/ha [3] [%] | pest or weed control at 250 g/ha [3] [%] | pest or weed control at 15.625 g/ha [4] [%] | pest or weed control at 62.5 g/ha [4] [%] | pest or weed control at 250 g/ha [4] [%] | pest or weed control at 15.625 g/ha [5] [%] | pest or weed control at 62.5 g/ha [5] [%] | pest or weed control at 250 g/ha [5] [%] | pest or weed control at 15.625 g/ha [6] [%] | pest or weed control at 62.5 g/ha [6] [%] | pest or weed control at 250 g/ha [6] [%] | pest or weed control at 15.625 g/ha [7] [%] | pest or weed control at 62.5 g/ha [7] [%] | other results
CN1C[C@H](c2ccc(C(F)(F)F)cc2)[C@@H](C(=O)Nc2cccc(F)[n+]2[O-])C1=O (racemic) [Compound 1814] | 0 | 0 | 0 | 0 | 0 | 0 | 0 | 0 | 0 | 0 | 0 | 0 | 0 | 0 | 0 | 0 | 0 | 0 | 0 | 0 | pest or weed control at 250 g/ha [7]: 0%; plant injury at 15.625 g/ha (corn (Zea mays) [8]): 0%; plant injury at 62.5 g/ha (corn (Zea mays) [8]): 0%; plant injury at 250 g/ha (corn (Zea mays) [8]): 0%; pest or weed control at 15.625 g/ha [9]: 0%; pest or weed control at 62.5 g/ha [9]: 0%; pest or weed control at 250 g/ha [9]: 10%; pest or weed control at 15.625 g/ha [10]: 0%; pest or weed control at 62.5 g/ha [10]: 0%; pest or weed control at 250 g/ha [10]: 0%; pest or weed control at 15.625 g/ha [11]: 0%; pest or weed control at 62.5 g/ha [11]: 0%; pest or weed control at 250 g/ha [11]: 0%; pest or weed control at 15.625 g/ha [12]: 0%; pest or weed control at 62.5 g/ha [12]: 0%; pest or weed control at 250 g/ha [12]: 0%
COc1ccc([C@@H]2CN(C)C(=O)[C@H]2C(=O)Nc2cccc(F)c2C)cc1Cl (racemic) [Compound 1793] | 20 | 70 | 90 | 0 | 20 | 40 | 30 | 90 | 90 | 0 | 0 | 10 | 0 | 0 | 0 | 0 | 0 | 30 | 30 | 70 | pest or weed control at 250 g/ha [7]: 80%; plant injury at 15.625 g/ha (corn (Zea mays) [8]): 10%; plant injury at 62.5 g/ha (corn (Zea mays) [8]): 30%; plant injury at 250 g/ha (corn (Zea mays) [8]): 50%; pest or weed control at 15.625 g/ha [9]: 70%; pest or weed control at 62.5 g/ha [9]: 80%; pest or weed control at 250 g/ha [9]: 80%; pest or weed control at 15.625 g/ha [10]: 0%; pest or weed control at 62.5 g/ha [10]: 10%; pest or weed control at 250 g/ha [10]: 70%; pest or weed control at 15.625 g/ha [11]: 0%; pest or weed control at 62.5 g/ha [11]: 0%; pest or weed control at 250 g/ha [11]: 0%; pest or weed control at 15.625 g/ha [12]: 0%; pest or weed control at 62.5 g/ha [12]: 10%; pest or weed control at 250 g/ha [12]: 30%
CN1CC(c2ccc(C(F)(F)F)c(C(F)(F)F)c2)C(C(=O)Nc2cccc(F)c2F)C1=O (stereo not drawn) [Compound 1714] | 0 | 50 | 80 | 0 | 0 | 10 | 30 | 70 | 80 | 0 | 0 | 10 | 0 | 0 | 10 | 0 | 0 | 0 | 40 | 70 | pest or weed control at 250 g/ha [7]: 80%; plant injury at 15.625 g/ha (corn (Zea mays) [8]): 20%; plant injury at 62.5 g/ha (corn (Zea mays) [8]): 30%; plant injury at 250 g/ha (corn (Zea mays) [8]): 50%; pest or weed control at 15.625 g/ha [9]: 70%; pest or weed control at 62.5 g/ha [9]: 80%; pest or weed control at 250 g/ha [9]: 80%; pest or weed control at 15.625 g/ha [10]: 10%; pest or weed control at 62.5 g/ha [10]: 20%; pest or weed control at 250 g/ha [10]: 60%; pest or weed control at 15.625 g/ha [11]: 70%; pest or weed control at 62.5 g/ha [11]: 80%; pest or weed control at 250 g/ha [11]: 90%; pest or weed control at 15.625 g/ha [12]: 0%; pest or weed control at 62.5 g/ha [12]: 30%; pest or weed control at 250 g/ha [12]: 40%
